Measured values reported in US20230146455A1, “TREATMENT OF INFLAMMATORY DISEASES WITH PEPTIDES AND PHARMACEUTICAL COMPOSITIONS” (Yuyu Pharma, Inc., priority 2020, published 2023).
Values joined by “and” are separate entries in the source; they are usually repeats but may differ in a detail not shown here. Equal values may be shown once. Where a SMILES comes first, the peptide text is derived from it. [ ]: non-standard residue; d: D form. Hyp = O=C(O)[C@@H]1C[C@@H](O)CN1

Tests used:
[1] = test system: TIMP-1; assay: Example 8 main study Luminex, LPS hPBMCs: TIMP-1; type: cell-based, human
Experimental: (§1) Human PBMCs were pretreated with YY-101, YDE-011, YDE-043 or reference compound; Xiidra® at various concentration (ranging from […] to 500 nM) for 2 h before stimulation. An equal volume of 0.5% DMSO was used as a vehicle control. Then, the cells were treated with LPS at 5 ug/ml, which was selected based on the pilot study. The supernatants from treated cells were harvested at 24 h and placed in a 96 well for Luminex cytokine & chemokine profiling using a Luminex 200 multiplex assay (Luminex; R&D system, USA).
(§2) The main study arm with triplicate wells per group in a 24-well plate: • 1. Blank • 2. PBMC: 0.5% DMSO • 3. PBMC+LPS (5 ug/ml) • 4. PBMC+YY-101 500 nM • 5. PBMC+YY-101 50 nM • 6. PBMC+YY-101 5 nM • 7. PBMC+YY-101 0.5 nM • 8. PBMC+LPS (5 ug/ml)+Xiidra® 500 nM • 9. PBMC+LPS (5 ug/ml)+Xiidra® 50 nM • 10. PBMC+LPS (5 ug/ml)+Xiidra® 5 nM • 11. PBMC+LPS (5 ug/ml)+Xiidra® 0.5 nM • 12. PBMC+LPS (5 ug/ml)+Xiidra® 0.05 nM • 13. PBMC+LPS (5 ug/ml)+Xiidra® 0.005 nM • 14. PBMC+LPS (5 ug/ml)+YY-101 500 nM • 15. PBMC+LPS (5 ug/ml)+YY-101 50 nM • 16. PBMC+LPS (5 ug/ml)+YY-101 5 nM • 17. PBMC+LPS (5 ug/ml)+YY-101 0.5 nM • 18. PBMC+LPS (5 ug/ml)+YY-101 0.05 nM • 19. PBMC+LPS (5 ug/ml)+YY-101 0.005 nM • 20. PBMC+LPS (5 ug/ml)+YDE-011 500 nM • 21. PBMC+LPS (5 ug/ml)+YDE-011 50 nM • 22. PBMC+LPS (5 ug/ml)+YDE-011 5 nM • 23. PBMC+LPS (5 ug/ml)+YDE-011 0.5 nM • 24. PBMC+LPS (5 ug/ml)+YDE-011 0.05 nM • 25. PBMC+LPS (5 ug/ml)+YDE-011 0.005 nM • 26. PBMC+LPS (5 ug/ml)+YDE-043 500 nM • 27. PBMC+LPS (5 ug/ml)+YDE-043 50 nM • 28. PBMC+LPS (5 ug/ml)+YDE-043 5 nM • 29. PBMC+LPS (5 ug/ml)+YDE-043 0.5 nM • 30. PBMC+LPS (5 ug/ml)+YDE-043 0.05 nM • 31. PBMC+LPS (5 ug/ml)+YDE-043 0.005 nM
(§3) Multiplex assay was used to measure 30 cytokines and chemokines. The 1:200 diluted cell supernatant and serial dilution of the standard were dispensed into a 96 well plate at 50 ul/well. Then, the pre-mixed cocktail of antibody-coated magnetic beads was dispensed at 50 ul/well and incubated at room temperature for 2 h in a horizontal orbital microplate shaker at 800±500 rpm. The beads were washed using a magnetic device to prevent loss. The biotin-antibody was dispensed in 50 ul of each well and incubated at room temperature for 1 h in a shaker at 800±500 rpm. After washing, streptavidin-PE was added at 50 ul/well and incubated at room temperature for 30 min in a shaker under the same conditions. Finally, after washing, wash buffer (100 ul/well) was added to the plate and incubated in a shaker for 2 min. The Luminex™ 200 setting were set according to the manufacturer's protocol. The data was calculated with a standard five-parameter logistic nonlinear regression analysis of the data (xPonent software 4.2, USA). Results were presented as concentration (ng/ml or pg/ml).

[2] = test system: MMP-9; assay: Example 8 main study Luminex, LPS hPBMCs: MMP-9; type: cell-based, human
Experimental: as §1, §2, §3

[3] = PBMC + LPS(5 ug/ml), test article 0.005 nM
[4] = PBMC + LPS(5 ug/ml), test article 0.05 nM
[5] = PBMC + LPS(5 ug/ml), test article 0.5 nM
[6] = PBMC + LPS(5 ug/ml), test article 5 nM
[7] = PBMC + LPS(5 ug/ml), test article 50 nM
[8] = PBMC + LPS(5 ug/ml), test article 500 nM
[9] = PBMC without LPS, test article 0.5 nM
[10] = PBMC without LPS, test article 5 nM
[11] = PBMC without LPS, test article 0.05 uM
[12] = PBMC without LPS, test article 50 nM
[13] = PBMC without LPS, test article 500 nM
[14] = PBMC + LPS(5 ug/ml), test article 0.005 nM, Mean
[15] = PBMC + LPS(5 ug/ml), test article 0.005 nM, single replicates
[16] = PBMC + LPS(5 ug/ml), test article 0.05 nM, Mean
[17] = PBMC + LPS(5 ug/ml), test article 0.05 nM, single replicates
[18] = PBMC + LPS(5 ug/ml), test article 0.5 nM, Mean
[19] = PBMC + LPS(5 ug/ml), test article 0.5 nM, single replicates
[20] = PBMC + LPS(5 ug/ml), test article 5 nM, Mean
[21] = PBMC + LPS(5 ug/ml), test article 5 nM, single replicates
[22] = PBMC + LPS(5 ug/ml), test article 50 nM, Mean
[23] = PBMC + LPS(5 ug/ml), test article 50 nM, single replicates
[24] = PBMC + LPS(5 ug/ml), test article 500 nM, Mean
[25] = PBMC + LPS(5 ug/ml), test article 500 nM, single replicates
[26] = PBMC without LPS, test article 0.5 nM, Mean
[27] = PBMC without LPS, test article 0.5 nM, single replicates (1st, 2nd)
[28] = PBMC without LPS, test article 5 nM, Mean
[29] = PBMC without LPS, test article 5 nM, single replicates (1st, 2nd)
[30] = PBMC without LPS, test article 0.05 uM, Mean
[31] = PBMC without LPS, test article 0.05 uM, single replicates (1st, 2nd)
[32] = PBMC without LPS, test article 50 nM, Mean
[33] = PBMC without LPS, test article 50 nM, single replicates (1st, 2nd)
[34] = PBMC without LPS, test article 500 nM, Mean
[35] = PBMC without LPS, test article 500 nM, single replicates (1st, 2nd)

In the case of `CC(C)C[C@H](NC(=O)CNC(=O)[C@H](CC(=O)O)NC(=O)[C@H](CCC(N)=O)NC(=O)CNC(=O)[C@@H]1C[C@@H](O)CN1)C(=O)N[C@@H](C)C(=O)NCC(=O)N1CCC[C@H]1C(=O)N[C@@H](CCCCN)C(=O)O` [YY-101] (H-[Hyp]GQDGLAGPK-OH; N-terminus and C-terminus assumed), the “TIMP-1 Concentration (pg/ml), Mean” value [1, 3] was 3912.8 pg/mL, the “TIMP-1 Concentration (pg/ml), single replicates” value [1, 3] was 4259.2 pg/ml (2×) and 3220.1 pg/ml and the “TIMP-1 Concentration (pg/ml), Mean” value [1, 4] was 3820.5 pg/mL. The “TIMP-1 Concentration (pg/ml), single replicates” value [1, 4] was 3935.4 pg/ml (2×) and 3590.9 pg/ml, the “TIMP-1 Concentration (pg/ml), Mean” value [1, 5] was 4128.5 pg/mL and the “TIMP-1 Concentration (pg/ml), single replicates” value [1, 5] was 3935.4 pg/mL and 3590.9 pg/mL and 4859.3 pg/mL. For the same compound, the “TIMP-1 Concentration (pg/ml), Mean” value [1, 6] was 3696.9 pg/mL, the “TIMP-1 Concentration (pg/ml), single replicates” value [1, 6] was 3935.4 pg/ml (2×) and 3220.1 pg/ml and the “TIMP-1 Concentration (pg/ml), Mean” value [1, 7] was 3696.9 pg/mL. For the same compound, the “TIMP-1 Concentration (pg/ml), single replicates” value [1, 7] was 3935.4 pg/ml (2×) and 3220.1 pg/ml, the “TIMP-1 Concentration (pg/ml), Mean” value [1, 8] was 3696.9 pg/mL and the “TIMP-1 Concentration (pg/ml), single replicates” value [1, 8] was 3935.4 pg/ml (2×) and 3220.1 pg/ml. The “TIMP-1 Concentration (pg/ml), Mean” value [1, 9] was 6580.9 pg/mL, the “TIMP-1 Concentration (pg/ml), single replicates” value [1, 9] was 6173.1 pg/mL and 6988.8 pg/mL and the “TIMP-1 Concentration (pg/ml), Mean” value [1, 10] was 6228.8 pg/mL. For the same compound, the “TIMP-1 Concentration (pg/ml), single replicates” value [1, 10] was 6531.0 pg/mL and 5926.6 pg/mL, the “TIMP-1 Concentration (pg/ml), Mean” value [1, 11] was 8751.3 pg/mL and the “TIMP-1 Concentration (pg/ml), single replicates” value [1, 11] was 10402.5 pg/mL and 7100.2 pg/mL. For the same compound, the “TIMP-1 Concentration (pg/ml), Mean” value [1, 12] was 6928.9 pg/mL, the “TIMP-1 Concentration (pg/ml), single replicates” value [1, 12] was 7210.4 pg/mL and 6647.4 pg/mL and the “TIMP-1 Concentration (pg/ml), Mean” value [1, 13] was 7209.9 pg/mL. For the same compound, the “TIMP-1 Concentration (pg/ml), single replicates” value [1, 13] was 7100.2 pg/mL and 7319.6 pg/mL, the “Concentration (pg/ml), MMP-9” value [2, 14] was 4617.5 pg/mL and the “MFI (Bead name: MMP-9)” value [2, 14] was 31.0. For the same compound, the “Concentration (pg/ml), MMP-9” value [2, 15] was 3688.0 pg/mL and 4925.2 pg/mL and 5239.4 pg/mL, the “MFI (Bead name: MMP-9)” value [2, 15] was 28.0 and 32.0 and 33.0 and the “Concentration (pg/ml), MMP-9” value [2, 16] was 4977.8 pg/mL. The “MFI (Bead name: MMP-9)” value [2, 16] was 32.2, the “Concentration (pg/ml), MMP-9” value [2, 17] was 5239.4 pg/mL and 4925.2 pg/mL and 4768.8 pg/mL and the “MFI (Bead name: MMP-9)” value [2, 17] was 33.0 and 32.0 and 31.5. For the same compound, the “Concentration (pg/ml), MMP-9” value [2, 18] was 5239.4 pg/mL, the “MFI (Bead name: MMP-9)” value [2, 18] was 33.0 and the “Concentration (pg/ml), MMP-9” value [2, 19] was 5239.4 pg/mL. The “MFI (Bead name: MMP-9)” value [2, 19] was 33.0, the “Concentration (pg/ml), MMP-9” value [2, 20] was 5138.2 pg/mL and the “MFI (Bead name: MMP-9)” value [2, 20] was 32.7. The “Concentration (pg/ml), MMP-9” value [2, 21] was 5239.4 pg/mL and 4302.5 pg/mL and 5872.9 pg/mL, the “MFI (Bead name: MMP-9)” value [2, 21] was 33.0 and 30.0 and 35.0 and the “Concentration (pg/ml), MMP-9” value [2, 22] was 5239.9 pg/mL. The “MFI (Bead name: MMP-9)” value [2, 22] was 33.0, the “Concentration (pg/ml), MMP-9” value [2, 23] was 5239.4 pg/mL and 4925.2 pg/mL and 5555.3 pg/mL and the “MFI (Bead name: MMP-9)” value [2, 23] was 33.0 and 32.0 and 34.0. The “Concentration (pg/ml), MMP-9” value [2, 24] was 5135.8 pg/mL, the “MFI (Bead name: MMP-9)” value [2, 24] was 32.7 and the “Concentration (pg/ml), MMP-9” value [2, 25] was 4612.9 pg/mL and 5239.4 pg/mL and 5555.3 pg/mL. For the same compound, the “MFI (Bead name: MMP-9)” value [2, 25] was 31.0 and 33.0 and 34.0, the “Concentration (pg/ml), MMP-9” value [2, 26] was 16511.2 pg/mL and the “MFI (Bead name: MMP-9)” value [2, 26] was 66.5. For the same compound, the “Concentration (pg/ml), MMP-9” value [2, 27] was 12836.1 pg/mL and 20186.4 pg/mL, the “MFI (Bead name: MMP-9)” value [2, 27] was 56.0 and 77.0 and the “Concentration (pg/ml), MMP-9” value [2, 28] was 14148.8 pg/mL. The “MFI (Bead name: MMP-9)” value [2, 28] was 59.8, the “Concentration (pg/ml), MMP-9” value [2, 29] was 16823.6 pg/mL and 11474.0 pg/mL and the “MFI (Bead name: MMP-9)” value [2, 29] was 67.5 and 52.0. The “Concentration (pg/ml), MMP-9” value [2, 30] was 17040.0 pg/mL, the “MFI (Bead name: MMP-9)” value [2, 30] was 68.0 and the “Concentration (pg/ml), MMP-9” value [2, 31] was 20901.3 pg/mL and 13178.7 pg/mL. For the same compound, the “MFI (Bead name: MMP-9)” value [2, 31] was 79.0 and 57.0, the “Concentration (pg/ml), MMP-9” value [2, 32] was 10636.2 pg/mL and the “MFI (Bead name: MMP-9)” value [2, 32] was 49.5. The “Concentration (pg/ml), MMP-9” value [2, 33] was 11813.2 pg/mL and 9459.2 pg/mL, the “MFI (Bead name: MMP-9)” value [2, 33] was 53.0 and 46.0 and the “Concentration (pg/ml), MMP-9” value [2, 34] was 11140.0 pg/mL. For the same compound, the “MFI (Bead name: MMP-9)” value [2, 34] was 51.0, the “Concentration (pg/ml), MMP-9” value [2, 35] was 10126.8 pg/mL and 12153.3 pg/mL and the “MFI (Bead name: MMP-9)” value [2, 35] was 48.0 and 54.0.
